Structures can show the parent of a compound that is named as a salt. One block for each compound: values may come before it.
Legend:
[1] = system: ABCB1 (HEKWT, HEK1199A, HEKCGT, HEKTTT, HEKcontrol); assay: Model functionality assay: Rhodamine123 intracellular fluorescence with or without zosuquidar; assay type: cell-based, human; conditions: Rh123 5 μM, 90 min
Method: 0.05 × 10^6 cells were seeded on poly-l-lysine coated 96-well plates and incubated overnight. The next day, Rh123 and zosuquidar dilutions were prepared from a stock solution. Cells were incubated for 90 min at 37 °C in the presence of Rh123 at 5 μM. The effect of ABCB1 inhibition was assessed by preincubation of the cells for 15 min with zosuquidar at a concentration of 0.2 μM. After incubation with Rh123, the supernatants were discarded. The cells were washed two times with ice-cold PBS. Sterile water was then added and detachment and lysis were performed through scratching of the well’s surface followed by sonication. Finally, fluorescence of Rh123 was analyzed by an iD3 Spectramax (Molecular Devices) fluorometer (c.1199G > A model validation) or a M3 Spectramax (Molecular Devices) fluorometer (haplotype model validation); excitation wavelength was set at 485 nm and emission at 530 nm. The solution was then used for protein quantification for results normalization.
Statistical analyses were carried out using GraphPad Prism version 9.5.1 for Mac OS X (GraphPad Software). For the functional assays, protein normalized intracellular fluorescences were compared after log-transformation using the natural logarithm (Ln), when required. Comparison was performed using a two-way ANOVA (α = 0.05) followed by a post-hoc analysis testing the effect of the inhibitor, with Bonferroni correction for multiple testing. For the intracellular bictegravir accumulation experiments, triplicates were performed during each experiment, and each experiment was performed thrice. For each experiment, protein normalized bictegravir intracellular concentrations were reported as fold-change of the mean of the protein normalized bictegravir intracellular concentration observed at the lowest bictegravir exposition concentration for HEKcontrol during the same experiment. Fold-change results from the three biological replicates were pooled and are shown on Figs. 3 and 4. Statistical analysis were performed on Ln transformed data that were pooled using the same principle as described here above. […]

[2] = target: T1, ABCB1 wild-type 1199G-1236C-2677G-3435C (Homo sapiens, UniProt P08183, S893A); assay: Intracellular bictegravir accumulation in HEK293 cells overexpressing wild-type ABCB1 (HEKWT); assay type: in vitro ADME; conditions: 2 h incubation, 0.25-5 mg/l
T1 construct: expressed in transfected cells; host or cells: HEK293 (ATCC), pcDNA3.1 plasmid, G418 selection
T1 sequence (P08183 whole entry S893A): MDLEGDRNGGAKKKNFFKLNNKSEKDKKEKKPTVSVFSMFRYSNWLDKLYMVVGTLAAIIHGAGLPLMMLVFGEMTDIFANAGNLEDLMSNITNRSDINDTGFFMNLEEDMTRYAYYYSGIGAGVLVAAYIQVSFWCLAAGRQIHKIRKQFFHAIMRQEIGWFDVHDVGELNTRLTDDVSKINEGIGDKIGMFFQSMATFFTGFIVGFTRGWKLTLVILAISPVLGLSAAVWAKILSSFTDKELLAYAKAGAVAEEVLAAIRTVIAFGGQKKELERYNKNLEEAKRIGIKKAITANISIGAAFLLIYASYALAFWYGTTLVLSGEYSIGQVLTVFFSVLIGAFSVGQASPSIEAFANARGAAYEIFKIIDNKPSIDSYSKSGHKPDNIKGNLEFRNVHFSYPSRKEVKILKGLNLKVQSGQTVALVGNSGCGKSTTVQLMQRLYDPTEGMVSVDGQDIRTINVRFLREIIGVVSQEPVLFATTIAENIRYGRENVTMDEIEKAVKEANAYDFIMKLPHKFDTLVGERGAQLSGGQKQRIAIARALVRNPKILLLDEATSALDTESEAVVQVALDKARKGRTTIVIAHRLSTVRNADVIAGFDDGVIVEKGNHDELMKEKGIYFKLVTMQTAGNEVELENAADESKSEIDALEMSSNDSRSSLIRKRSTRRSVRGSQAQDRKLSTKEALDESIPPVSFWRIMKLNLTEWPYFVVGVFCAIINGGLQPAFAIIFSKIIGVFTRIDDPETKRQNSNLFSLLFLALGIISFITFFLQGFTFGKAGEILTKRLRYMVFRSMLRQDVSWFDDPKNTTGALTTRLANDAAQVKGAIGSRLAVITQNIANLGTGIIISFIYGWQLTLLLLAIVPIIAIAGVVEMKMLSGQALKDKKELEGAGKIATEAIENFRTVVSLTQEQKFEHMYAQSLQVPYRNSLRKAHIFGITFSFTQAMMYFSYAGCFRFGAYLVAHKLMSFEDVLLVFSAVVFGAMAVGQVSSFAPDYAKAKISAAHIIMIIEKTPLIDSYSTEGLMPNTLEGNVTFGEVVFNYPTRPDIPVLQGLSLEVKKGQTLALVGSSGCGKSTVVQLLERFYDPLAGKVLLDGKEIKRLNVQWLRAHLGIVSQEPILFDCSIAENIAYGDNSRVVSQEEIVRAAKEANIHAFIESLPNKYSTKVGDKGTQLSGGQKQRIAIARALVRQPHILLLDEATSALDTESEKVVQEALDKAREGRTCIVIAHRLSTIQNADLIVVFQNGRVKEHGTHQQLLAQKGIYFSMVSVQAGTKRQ
Text: (§1) The generation and characterization of recombinant cell lines have been described in previous work conducted by our lab[26],[42]. Briefly, human embryonic kidney (HEK293) cells were purchased from American Type Culture Collection and transfected with plasmids carrying either wild-type ABCB1 1199G-1236C-2677G-3435C (thereafter named HEKWT) or several ABCB1 variant combinations obtained using site-directed mutagenesis, 1199A-1236C-2677G-3435C (thereafter named HEK1199A), 1199G-1236C-2677G-3435T (thereafter named HEKCGT) and 1199G-1236T-2677T-3435T (thereafter named HEKTTT); or an empty vector (thereafter named HEKcontrol). […] This model has previously been extensively characterized using flow cytometry, Western blot, and fluorescence microscopy, and validated using reference substrates and inhibitors of ABCB1[26],[42]. […]
(§2) 0.7 × 10^6 cells were seeded on poly-l-lysine-coated 12-well plates and incubated overnight. […] Cell suspensions were centrifugated for 10 min at 10,500×g, 4 °C and 100 μl of the supernatant was transferred to a vial for bictegravir liquid chromatography-tandem mass spectrometry (LC–MS/MS) quantification. […] This mixed solution was used for protein quantification for results normalization.
(§3) Bictegravir intracellular concentrations were determined using an adapted version of a previously published LC–MS/MS method on a Xevo TQS-micro tandem quadrupole mass spectrometer (Waters)[46]. […]

[3] = target: T2, ABCB1 1199A-1236C-2677G-3435C (Homo sapiens, UniProt P08183, S400N/S893A); assay: Intracellular bictegravir accumulation in HEK293 cells overexpressing ABCB1 1199A variant (HEK1199A); assay type: in vitro ADME; conditions: 2 h incubation, 0.25-5 mg/l, Fig. 3
T2 construct: expressed in transfected cells; host or cells: HEK293 (ATCC), pcDNA3.1 plasmid, G418 selection
T2 sequence (P08183 whole entry S400N/S893A): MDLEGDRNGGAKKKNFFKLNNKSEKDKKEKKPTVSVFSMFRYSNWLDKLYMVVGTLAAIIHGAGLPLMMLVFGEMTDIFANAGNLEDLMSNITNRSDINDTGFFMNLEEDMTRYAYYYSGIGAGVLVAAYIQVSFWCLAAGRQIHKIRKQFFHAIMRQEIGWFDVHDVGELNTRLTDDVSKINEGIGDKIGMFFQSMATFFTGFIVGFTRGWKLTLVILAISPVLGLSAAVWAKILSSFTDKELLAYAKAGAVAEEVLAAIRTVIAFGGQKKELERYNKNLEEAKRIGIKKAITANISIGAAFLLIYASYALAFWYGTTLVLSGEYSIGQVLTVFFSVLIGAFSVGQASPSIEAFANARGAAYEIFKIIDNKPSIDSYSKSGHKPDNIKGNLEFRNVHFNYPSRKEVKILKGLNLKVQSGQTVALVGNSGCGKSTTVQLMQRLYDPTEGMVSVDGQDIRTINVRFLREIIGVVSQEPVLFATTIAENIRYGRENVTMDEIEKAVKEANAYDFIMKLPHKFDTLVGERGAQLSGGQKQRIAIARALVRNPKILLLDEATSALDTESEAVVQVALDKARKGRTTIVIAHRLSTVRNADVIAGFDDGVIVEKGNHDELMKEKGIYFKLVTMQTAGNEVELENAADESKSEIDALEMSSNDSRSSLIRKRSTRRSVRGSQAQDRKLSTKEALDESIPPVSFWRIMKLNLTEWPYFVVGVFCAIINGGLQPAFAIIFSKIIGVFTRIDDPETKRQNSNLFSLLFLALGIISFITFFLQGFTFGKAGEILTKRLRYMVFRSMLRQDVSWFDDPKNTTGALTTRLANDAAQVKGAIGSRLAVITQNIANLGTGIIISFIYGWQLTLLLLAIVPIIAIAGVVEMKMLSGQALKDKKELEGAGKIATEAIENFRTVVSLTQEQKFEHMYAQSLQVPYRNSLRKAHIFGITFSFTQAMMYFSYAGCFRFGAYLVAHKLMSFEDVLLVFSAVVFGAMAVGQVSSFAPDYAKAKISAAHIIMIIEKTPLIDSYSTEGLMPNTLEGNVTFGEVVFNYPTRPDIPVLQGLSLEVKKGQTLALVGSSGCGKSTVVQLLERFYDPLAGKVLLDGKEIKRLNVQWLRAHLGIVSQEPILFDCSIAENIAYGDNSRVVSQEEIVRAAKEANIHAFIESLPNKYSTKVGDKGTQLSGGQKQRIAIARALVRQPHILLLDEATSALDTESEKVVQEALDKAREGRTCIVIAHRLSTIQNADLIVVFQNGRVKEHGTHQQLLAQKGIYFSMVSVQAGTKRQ
Text: as §1, §2, §3

[4] = target: T3, ABCB1 1199G-1236C-2677G-3435T (Homo sapiens, UniProt P08183, S893A); assay: Intracellular bictegravir accumulation in HEK293 cells overexpressing ABCB1 CGT haplotype (HEKCGT); assay type: in vitro ADME; conditions: 2 h incubation, 0.25-5 mg/l; Fig. 4
T3 construct: expressed in transfected cells; host or cells: HEK293 (ATCC), pcDNA3.1 plasmid, G418 selection
T3 sequence (P08183 whole entry S893A): as the sequence (P08183 whole entry S893A) above
Text: as §1, §2, §3

[5] = target: T4, ABCB1 1199G-1236T-2677T-3435T (Homo sapiens, UniProt P08183); assay: Intracellular bictegravir accumulation in HEK293 cells overexpressing ABCB1 TTT haplotype (HEKTTT); assay type: in vitro ADME; conditions: 2 h incubation, 0.25-5 mg/l; Fig. 4
T4 construct: expressed in transfected cells; host or cells: HEK293 (ATCC), pcDNA3.1 plasmid, G418 selection
Text: (§4) The generation and characterization of recombinant cell lines have been described in previous work conducted by our lab[26],[42]. Briefly, human embryonic kidney (HEK293) cells were purchased from American Type Culture Collection and transfected with plasmids carrying either wild-type ABCB1 1199G-1236C-2677G-3435C (thereafter named HEKWT) or several ABCB1 variant combinations obtained using site-directed mutagenesis, 1199A-1236C-2677G-3435C (thereafter named HEK1199A), 1199G-1236C-2677G-3435T (thereafter named HEKCGT) and 1199G-1236T-2677T-3435T (thereafter named HEKTTT); or an empty vector (thereafter named HEKcontrol). HEKCGT was selected, in addition to HEKWT (carrying the CGC haplotype) and HEKTTT, to test the potential impact of c.3435C > T variant. HEK293 cells feature low endogenous levels of expression of ABCB1, ensuring that ABCB1 expression originates almost exclusively from the transfection process. This model has previously been extensively characterized using flow cytometry, Western blot, and fluorescence microscopy, and validated using reference substrates and inhibitors of ABCB1[26],[42]. As the same cells were used, only flow cytometry and functional tests using reference substrates and inhibitors were used to re-characterize them.
as §2
(§5) Bictegravir intracellular concentrations were determined using an adapted version of a previously published LC–MS/MS method on a Xevo TQS-micro tandem quadrupole mass spectrometer (Waters)[46]. […] The following ion transitions were monitored: 450.1 > 289.1 for bictegravir and 453.2 > 289.2 for bictegravir-15N, d2.
(§6) Total proteins were quantified in pellets using the BCA kit (Thermo Fisher Scientific) according to the manufacturer’s instructions. […]

[6] = system: ABCB1 1199G-1236T-2677T-3435T; assay: as above; assay type: in vitro ADME, human; conditions: 2 h incubation, 0.25-5 mg/l; Fig. 4
Text: as §4, §2, §5, §6

[7] = target: T5, ABCB1 (wild-type, HEK1199G cells; HEKcontrol cells) (Homo sapiens, UniProt P08183, S893A); assay: Intracellular bictegravir accumulation with or without the ABCB1 inhibitor zosuquidar (Supplementary Fig. 2); assay type: in vitro ADME; conditions: bictegravir 2500 ng/mL, 120 min, zosuquidar 0.2 μM preincubation 15 min
T5 construct: expressed in transfected cells; host or cells: HEK293 (ATCC), pcDNA3.1 plasmid, G418 selection
T5 sequence (P08183 whole entry S893A): as above
Method: 0.7x10^6 cells were seeded on poly-l-lysine-coated 12-well plates and incubated overnight. The next day, bictegravir and zosuquidar dilutions were prepared from a stock solution. Cells were incubated for 120 minutes at 37 °C (5% CO2) in the presence of bictegravir at 2500 ng/mL. The effect of ABCB1 inhibition was assessed by preincubation of the cells for 15 minutes with zosuquidar at a concentration of 0.2 μM. Subsequently, plates were then centrifuged for 3 min at 4 °C, and maintained on ice throughout the experiment to block drug efflux. Cells were washed twice with 1 mL […]
Drug extraction was then performed as described in the Manuscript, in the Methods section describing Intracellular bictegravir accumulation experiments. Drug quantification and protein quantification were performed as described in the dedicated Methods sections.
Reported statistical analysis: ANOVA-2 with post-hoc Bonferroni correction test, performed on log- […]
(1 picture or pasted object on this page, not shown here)

[8] = set-up: method as in PMID 36701274; conditions: cited from earlier work
[9] = set-up: method as in PMID 36701274; conditions: cited from earlier work; remark: listed apart in the source
ABCB1 = system: ABCB1; set-up: method as in PMID 36701274; conditions: ABCB1-overexpressing MDCK II transfected cells compared with non-transfected cells; cited from earlier work
[10] = set-up: method as in PMID 36701274; conditions: thought to be mainly due to passive diffusion; cited from earlier work
[11] = set-up: method as in PMID 32868324, PMID 32199329; conditions: cited from earlier work
[12] = set-up: method as in PMID 32868324, PMID 32199329; conditions: cited from earlier work; remark: listed apart in the source
[13] = system: human peripheral blood mononuclear cells; set-up: method as in PMID 36806669; conditions: cited from earlier work
[14] = system: ABCB1 c.1199G > A variant; conditions: cited from earlier work
PBMCs = assay: Preliminary clinical pharmacokinetic assessments of intracellular accumulation in PBMCs; assay type: in vivo
[15] = system: ABCB1 c.1236C > T, c.2677G > T and c.3435C > T variants; conditions: cited from earlier work
[16] = zosuquidar 0.2 μM, 15 min preincubation

SMILES: COC(=O)c1ccccc1-c1c2ccc(=N)cc-2oc2cc(N)ccc12 [Rh123, Rhodamine123]
- Rh123 intracellular fluorescence in cell lines overexpressing ABCB1 compared to HEKcontrol ([1]; HEKWT, HEK1199A, HEKCGT and HEKTTT, without zosuquidar): significantly lower

- bictegravir intracellular accumulation, HEKWT versus HEKcontrol ([2]; c.1199G > A experiments, protein-normalized, fold-change, Fig. 3): significantly lower
- bictegravir intracellular accumulation, HEKWT versus HEKcontrol ([2]; haplotype experiments, Fig. 4): significantly lower
- difference of bictegravir intracellular accumulation between HEKWT and HEK1199A [3]: did not show any significant difference
- bictegravir intracellular accumulation, HEK1199A versus HEKcontrol ([3]; protein-normalized, fold-change): significantly lower
- bictegravir intracellular accumulation, HEKCGT versus HEKcontrol [4]: significantly lower
- difference of bictegravir intracellular accumulation, HEKWT vs HEKCGT [4]: did not show any significant difference
- bictegravir intracellular accumulation, HEKTTT versus HEKcontrol [5]: significantly lower
- difference of bictegravir intracellular accumulation, HEKCGT vs HEKTTT [6]: did not show any significant difference
- difference of bictegravir intracellular accumulation, HEKWT vs HEKTTT [6]: did not show any significant difference
- change of bictegravir intracellular accumulation in the presence of zosuquidar, HEK1199G cells [7]: significant increase
SMILES: O=C(NCc1c(F)cc(F)cc1F)c1cn2c(c(O)c1=O)C(=O)N1[C@H]3CC[C@H](C3)O[C@@H]1C2 [bictegravir]
- biopharmaceutical classification system class [8]: class II
- solubility (biopharmaceutical classification system) [8]: low solubility
- permeability (biopharmaceutical classification system) [9]: high permeability
- transepithelial permeability [9]: High
- transport by ABCB1 (ABCB1): active transport
- oral bioavailability [10]: high
- ratios of cerebrospinal fluid over plasma bictegravir concentrations [11]: low
- plasma protein binding [12]: high
- accumulation into human peripheral blood mononuclear cells [13]: limited

SMILES: Cc1nc(Nc2ncc(C(=O)Nc3c(C)cccc3Cl)s2)cc(N2CCN(CCO)CC2)n1 [dasatinib]
- effect of c.1199G > A variant on transport [14]: affect the transport

- intracellular accumulation in PBMCs compared to bictegravir (PBMCs): higher
SMILES: C[C@@H]1CCO[C@H]2Cn3cc(C(=O)NCc4ccc(F)cc4F)c(=O)c(O)c3C(=O)N12 [dolutegravir]

SMILES: Cc1ccc(NC(=O)c2ccc(CN3CCN(C)CC3)cc2)cc1Nc1nccc(-c2cccnc2)n1 [imatinib]
- impact of c.1236C > T, c.2677G > T and c.3435C > T variants on anti-proliferative activity [15]: more pronounced effect

SMILES: Cc1cn(-c2cc(NC(=O)c3ccc(C)c(Nc4nccc(-c5cccnc5)n4)c3)cc(C(F)(F)F)c2)cn1 [nilotinib]
- effect of c.1199G > A variant on transport [14]: affect the transport

SMILES: C=CC[C@@H]1/C=C(\C)C[C@H](C)C[C@H](OC)[C@H]2O[C@@](O)(C(=O)C(=O)N3CCCC[C@H]3C(=O)O[C@H](/C(C)=C/[C@@H]3CC[C@@H](O)[C@H](OC)C3)[C@H](C)[C@@H](O)CC1=O)[C@H](C)C[C@@H]2OC [tacrolimus]
- impact of c.1199G > A variant on intracellular accumulation ([14]; same cellular model): significant impact

SMILES: O[C@@H](COc1cccc2ncccc12)CN1CCN([C@@H]2c3ccccc3[C@@H]3[C@H](c4ccccc42)C3(F)F)CC1 [zosuquidar, zosuquidar hydrochloride]
- Rh123 intracellular fluorescence after pre-incubation with zosuquidar, cell lines overexpressing ABCB1 [1, 16]: increased to a level close to the level measured for HEKcontrol
- effect of the inhibitor on Rh123 fluorescence in the HEKcontrol batch used for haplotype functional characterization [1, 16]: small but significant effect

Reference: publication PMC11251168, “Effect of ABCB1 most frequent polymorphisms on the accumulation of bictegravir in recombinant HEK293 cell lines” (Scientific Reports, 2024)
